# From patent US8431577B2, “Crystalline form of eszopiclone, composition, preparation and uses thereof” (Tianjin Tasly Group Co., Ltd., priority 2008, dated 2013)
# Like-named read-outs stand apart in the source and are kept apart here.
# How the values were obtained:
# Male Long-Evans rats [1] = experiment: Test of spontaneous activity; assay type: in vivo, rat; settings: 10 mg/Kg body weight
# Experimental: (§1) Male Long-Evans rats (weighing 250˜275 g) were adopted, divided into 3 groups, and fed in a 12-hour light-dark cycle. After one week of feeding, the experiment was carried out.
# Horizontal activity of rats had been observed under an open circumstance to measure a total spontaneous activity. Respectively, all animals were placed into 8 black light-proof rooms, and their spontaneous activities were monitored by an infrared sensor mounted on the wall at equal intervals to record once every 10 minutes for 120 minutes.
# The crystalline form of S-zopiclone was administrated to the animals at a dose of 10 mg/Kg body weight. 30˜60 minutes after administration, the inhibitory effect on the locomotor ability reached a peak, and disappeared after 2 hours.
# Male Long-Evans rats [2] = experiment: Maze test; assay type: in vivo, rat
# Experimental: as §1
# [3] = High humidity (25° C., RH 92.5%) stability test; assay type: physicochemical; settings: for Content (%) / Related substances (%) Levozopiclone / Related substances (%) Other impurities: High humidity (92.5%), 25° C.; for Weight gain: high humidity 25° C., RH 92.5%
# Experimental: The crystalline form of S-zopiclone of the present invention was introduced into an open and colorless transparent weighing-bottle batch by batch, and placed in a closed vessel (KNO3 saturated solution, RH: 92.5%) for 10 days. The specimens were sampled on the 5th and 10th day respectively to measure their stability in accordance with the key stability-relevant items. Meanwhile, the weight of the tested drug pre-and post test was measured accurately.
# [4] = for Content (%) / Related substances (%) Levozopiclone / Related substances (%) Other impurities: Strong light exposure (4500±500 Lx)
# Source text: The specimens were sampled on the 5th and 10th day respectively to measure their stability in accordance with the key stability-relevant items.
# [5] = Accelerated stability test; settings: 40±2° C., RH 75±5%
# Experimental: The crystalline form of S-zopiclone was packaged in packages simulated the commercial ones, and placed in a thermostat container (temperature: 40±2° C., RH:75±5%) for 6 months. The specimens were sampled on the 1st, 2nd, 3rd and 6th month respectively to measure their stability in accordance with the key stability-relevant items.
# [6] = Crystal transformation under the stability tests (X-ray diffraction); assay type: physicochemical; settings: under all stability tests (60° C., RH 92.5%, strong light, accelerated, long-term)
# [7] = Pharmacokinetic study of single oral administration in healthy volunteers; assay type: in vivo, human
# Experimental: Evaluation of pharmacokinetics: according to the results of phase I clinical tolerance trial and the pre-designed therapeutic dose of phase II clinical trial, a high dose of 11. 25 mg/kg BW (body weight) can be tolerated by all volunteers in tolerance test, three different dose groups had been set as follows: low dose group, moderate dose group and high dose group were 3, 6 and 12 mg/kg BW, respectively. Three-way crossover Latin square design was used. All subjects were randomly divided into 3 test groups, and the tested drug at different doses was administrated to the subjects when performing each test. Thus, after 3 tests, each subject had been administrated with the testing drug at high, moderate and low dose by following the Latin square design procedure. The interval between two tests was 2 weeks.
# After a single oral administration of the tested drug, 6 ml anticoagulant heparin venous blood samples were collected at 0th (immediately before administration), 15th minute, 30th minute, 45th minute, 60th minute, 1.5th hour, 2nd hour, 3rd hour, 4th hour, 6th hour, 8th hour, 12th hour, 16th hour and 24th hour respectively to determine the concentration of S-zopiclone. By HPLC, the plasma drug concentration of each subject had been determined at different time-points to give a concentration-time curve. The main pharmacokinetic parameters of the subjects had been calculated, including AUC, Cmax, Tmax, AUC0˜α, AUC0-t and t1/2, etc.
# The crystalline form of S-zopiclone was prepared into coated tablets (3 mg S-zopiclone/tablet) in accordance with Example 1 and Example 9, single orally administrated.
# Pharmacokinetic indices: the plasma drug concentration had been determined immediately before administration and at different time-points after administration of the drug to give a concentration-time curve. The main pharmacokinetic parameters had been calculated, including Cmax, Tmax, AUC0˜α, AUC0-t and t1/2, etc.
# Pharmacokinetic: 3P97 statistical analysis software had been applied to calculate the main pharmacokinetic parameters.
# [8] = 3 mg single oral administration
# [9] = 6 mg single oral administration
# [10] = 12 mg single oral administration
structure (smiles),measurement,setting,value
"CN1CCN(C(=O)O[C@H]2c3nccnc3C(=O)N2c2ccc(Cl)cn2)CC1 [crystalline form of S-zopiclone, (+)-(S)-(4-methylpiperazine-1-carboxylate)(6-(5-chloropyridinyl-2-yl)-7-carbonyl-6,7-dihydro-5-H-pyrrolo[3,4-b]pyrazin-5-yl ester)]",time after which inhibitory effect on the locomotor ability disappeared,Male Long-Evans rats [1],2 h
same,residence time in the open arm,Male Long-Evans rats [2]; 5 mg/Kg body weight,significantly increase
same,"effect on total entries, open arm entries and close arm entries",Male Long-Evans rats [2]; 10 mg/Kg body weight,significant effect
same,residence time in the open arm,Male Long-Evans rats [2]; 10 mg/Kg body weight,significantly increase
same,Content (%),[3]; day 0,100.06%
same,Related substances (%) Levozopiclone,[3]; day 0,0.06%
same,Related substances (%) Other impurities,[3]; day 0,0.09%
same,Content (%),[3]; day 5,99.86%
same,Related substances (%) Levozopiclone,[3]; day 5,0.08%
same,Related substances (%) Other impurities,[3]; day 5,0.11%
same,Content (%),[3]; day 10,99.91%
same,Related substances (%) Levozopiclone,[3]; day 10,0.07%
same,Related substances (%) Other impurities,[3]; day 10,0.11%
same,Weight gain,[3]; 5th day,0.07%
same,Weight gain,[3]; 10th day,0.08%
same,"stability (character, melting point, related substances versus 0th day)",[4]; 10 days of strong light exposure (4500±500 Lx),remained stable
same,Content (%),[4]; day 0,100.06%
same,Related substances (%) Levozopiclone,[4]; day 0,0.06%
same,Related substances (%) Other impurities,[4]; day 0,0.09%
same,Content (%),[4]; day 5,99.77%
same,Related substances (%) Levozopiclone,[4]; day 5,0.08%
same,Related substances (%) Other impurities,[4]; day 5,0.10%
same,Content (%),[4]; day 10,100.02%
same,Related substances (%) Levozopiclone,[4]; day 10,0.07%
same,Related substances (%) Other impurities,[4]; day 10,0.11%
same,"stability (character, melting point, related substances versus 0th day)",[5]; 6 months of accelerated test,remained stable
same,Content (%),[5]; month 0,100.06%
same,Related substances (%) Levozopiclone,[5]; month 0,0.06%
same,Related substances (%) Other impurities,[5]; month 0,0.09%
same,Content (%),[5]; month 1,100.13%
same,Related substances (%) Levozopiclone,[5]; month 1,0.07%
same,Related substances (%) Other impurities,[5]; month 1,0.10%
same,Content (%),[5]; month 2,100.02%
same,Related substances (%) Levozopiclone,[5]; month 2,0.07%
same,Related substances (%) Other impurities,[5]; month 2,0.12%
same,Content (%),[5]; month 3,99.91%
same,Related substances (%) Levozopiclone,[5]; month 3,0.05%
same,Related substances (%) Other impurities,[5]; month 3,0.12%
same,Content (%),[5]; month 6,99.73%
same,Related substances (%) Levozopiclone,[5]; month 6,0.06%
same,Related substances (%) Other impurities,[5]; month 6,0.09%
same,phenomenon of crystal transformation,[6],had not been observed
same,AUC0-∞,[7]; [8],259.66 ± 92.58 µg/h/L
same,Cmax,[7]; [8],33.96 ± 8.63 ng/mL
same,Tmax,[7]; [8],1.50 ± 0.66 h
same,plasma clearance,[7]; [8],14.10 ± 4.5 L/h
same,t1/2,[7]; [8],6.98 ± 0.99 h
same,AUC0-∞,[7]; [9],404.21 ± 73.32 µg/h/L
same,Cmax,[7]; [9],60.94 ± 11.44 ng/mL
same,Tmax,[7]; [9],1.28 ± 0.43 h
same,plasma clearance,[7]; [9],15.80 ± 3.0 L/h
same,t1/2,[7]; [9],8.20 ± 6.14 h
same,AUC0-∞,[7]; [10],1291.26 ± 426.68 µg/h/L
same,Cmax,[7]; [10],182.72 ± 67.44 ng/mL
same,Tmax,[7]; [10],1.58 ± 0.40 h
same,plasma clearance,[7]; [10],10.90 ± 5.00 L/h
same,t1/2,[7]; [10],8.06 ± 2.82 h
